Assay results reported in US20150031102A1, “METHODS AND COMPOSITIONS FOR ENHANCED PRODUCTION OF BUTANOL BY CLOSTRIDIA” (Butrolix LLC, priority 2012, published 2015).

System: Clostridium acetobutylicum strain ATCC 824
Assay: Sequential batch transfer in 24-well culture plates (butanol, residual glucose, butanol yield and productivity)
Type: cell-based
Conditions: after 96 hours of culture; for Residual glucose concentration: initial glucose 60 g/L
Experimental: Each well contained 1.5 mL of growth medium. Peptide was added to each well at the indicated concentration (0, 25, 50, and 100 nM). Every 24 hours fresh medium and peptide treatment were added to a new column of wells then 1.5 μL of the previous day culture was transferred to the new well. Wells were harvested for glucose and butanol analysis after 96 hours of growth. Transfers 1, 4, 7, 10, 13, 16, […].
Briefly, Clostridium spores were germinated in a suitable growth medium for 18-24 hours then […] was transferred to 1.5 mL of fresh medium in each of four wells on a 24-well culture plate. Three of the wells had been treated with 25 nM, 50 nM and 100 nM of peptide, respectively while the fourth well was untreated. Thereafter, every 24 hours […] of each subculture was transferred to 1.5 mL of fresh medium that contained the same peptide treatment or no treatment. Transfers of successive subcultures were done for 24 days, and each subculture was grown for 96 hours before being harvested. Culture supernatants were recovered following centrifugation and were analyzed for butanol and residual glucose concentrations. Determination of optimum peptide treatment levels was based on a graphical comparison of the concentration of butanol in each of the four culture wells for sequential transfers 1, 4, 7, 10, 13, 16, 19, 22 and 24.
Clostridium acetobutylicum strain ATCC 824 was used in all experiments and the growth medium used for sequential batch transfer, time course, and continuous culture experiments contained yeast extract, casamino acids, L-cysteine, L-asparagine, phosphate buffer, trace minerals, and 6% glucose. What are believed to be quorum-sensing peptides that were used in the experiments were chemically synthesized peptides SEQ ID NO: 143 (amino acid sequence: SYPGWSW) and SEQ ID NO: 144 (amino acid sequence: ILILISG). Routine growth of the bacteria as well as the sequential batch and time course experiments were conducted in a Form a Scientific Model 1029 anaerobic gas chamber at 32° C. Continuous cultures were performed at 32° C. using duplicate New Brunswick Scientific BioFlo 3000 apparati with a dilution rate of 0.01 volume per hour, 75 rpm agitation, and nitrogen gas sparging. Optical density of culture samples was measured at 600 nm in a Beckman DU 600 series spectrophotometer and glucose was analyzed using a YSI Model 2700 Select Biochemistry Analyzer with internal glucose calibration. Butanol concentrations were determined by measuring experimental and standard samples using a Varian Saturn 3 Gas Chromatograph/Mass Spectrometer and calculating butanol concentrations using standard curves.
(§1) Sequential batch transfer experiments were carried out in 24-well culture plates that contained 1.5 mL of medium per well. Peptide was added to each well at the indicated concentrations of 0 nM (control), 25 nM, 50 nM, or 100 nM. Every 24 hours, fresh medium and peptide treatments were added to a new column of wells. Then, 1.5 uL of the previous day culture was transferred to the new well. Wells were harvested for glucose and butanol analysis after 96 hours of growth; transfers 1, 4, 7, 10, 13, 16, 19, 22, and 24 were analyzed. Two representative experiments are shown in Tables 30 and 31 and FIGS. 14 and 15.
as §1, with “32” for “30”, “33” for “31”, “16” for “14”, “17.” for “15.”

[1] = 25 nM peptide, transfer 1, Expt. 1
[2] = 25 nM peptide, transfer 4, Expt. 1
[3] = 25 nM peptide, transfer 7, Expt. 1
[4] = 25 nM peptide, transfer 10, Expt. 1
[5] = 25 nM peptide, transfer 13, Expt. 1
[6] = 25 nM peptide, transfer 16, Expt. 1
[7] = 25 nM peptide, transfer 19, Expt. 1
[8] = 25 nM peptide, transfer 22, Expt. 1
[9] = 25 nM peptide, transfer 24, Expt. 1
[10] = 50 nM peptide, transfer 1, Expt. 1
[11] = 50 nM peptide, transfer 4, Expt. 1
[12] = 50 nM peptide, transfer 7, Expt. 1
[13] = 50 nM peptide, transfer 10, Expt. 1
[14] = 50 nM peptide, transfer 13, Expt. 1
[15] = 50 nM peptide, transfer 16, Expt. 1

“ILILISG (Derived from Clostridium acetobutylicum SEQ ID NO: 110) [peptide SEQ ID NO: 144]” was tested. Which Butanol concentration [1] did it give?
The Butanol concentration was 1.93 g/L.

What about the Butanol productivity [1] of the same substance?
The Butanol productivity was 0.02 g butanol/L-h.

And the Butanol yield [1]?
The Butanol yield was 0.03 g butanol/g/glucose.

And the Butanol concentration (25 nM peptide, transfer 1, Expt. 2 (repeat), Table 58)?
The Butanol concentration was 1.25 g/L.

What about the Residual glucose concentration [1] of the same substance?
The Residual glucose concentration was 43.3 g/L.

What about the Residual glucose concentration (25 nM peptide, transfer 1, Expt. 2 (repeat), Table 45) of the same substance?
The Residual glucose concentration was 48.7 g/L.

What about the Butanol concentration [2] of the same substance?
Its Butanol concentration is 10.01 g/L.

What about the Butanol productivity [2] of the same substance?
The Butanol productivity was 0.10 g butanol/L-h.

And the Butanol yield [2]?
The Butanol yield was 0.17 g butanol/g/glucose.

And the Butanol concentration (25 nM peptide, transfer 4, Expt. 2 (repeat), Table 58)?
Its Butanol concentration is 2.36 g/L.

What about the Residual glucose concentration [2] of the same substance?
The Residual glucose concentration was 0.0 g/L.

What about the Residual glucose concentration (25 nM peptide, transfer 4, Expt. 2 (repeat), Table 45) of the same substance?
Its Residual glucose concentration is 43.6 g/L.

And the Butanol concentration [3]?
Its Butanol concentration is 7.82 g/L.

What about the Butanol productivity [3] of the same substance?
Its Butanol productivity is 0.08 g butanol/L-h.

What about the Butanol yield [3] of the same substance?
Its Butanol yield is 0.13 g butanol/g/glucose.

What about the Butanol concentration (25 nM peptide, transfer 7, Expt. 2 (repeat), Table 58) of the same substance?
The Butanol concentration was 2.26 g/L.

What about the Residual glucose concentration [3] of the same substance?
Its Residual glucose concentration is “.01 g/L”.

What about the Residual glucose concentration (25 nM peptide, transfer 7, Expt. 2 (repeat), Table 45) of the same substance?
Its Residual glucose concentration is 46.5 g/L.

And the Butanol concentration [4]?
The Butanol concentration was 11.88 g/L.

What about the Butanol productivity [4] of the same substance?
The Butanol productivity was 0.12 g butanol/L-h.

What about the Butanol yield [4] of the same substance?
Its Butanol yield is 0.20 g butanol/g/glucose.

And the Butanol concentration (25 nM peptide, transfer 10, Expt. 2 (repeat), Table 58)?
Its Butanol concentration is 3.56 g/L.

And the Residual glucose concentration [4]?
The Residual glucose concentration was 0.1 g/L.

And the Residual glucose concentration (25 nM peptide, transfer 10, Expt. 2 (repeat), Table 45)?
The Residual glucose concentration was 42.5 g/L.

And the Butanol concentration [5]?
Its Butanol concentration is 7.56 g/L.

What about the Butanol productivity [5] of the same substance?
The Butanol productivity was 0.08 g butanol/L-h.

And the Butanol yield [5]?
The Butanol yield was 0.13 g butanol/g/glucose.

What about the Butanol concentration (25 nM peptide, transfer 13, Expt. 2 (repeat), Table 58) of the same substance?
The Butanol concentration was 9.51 g/L.

And the Residual glucose concentration [5]?
Its Residual glucose concentration is 0.1 g/L.

And the Residual glucose concentration (25 nM peptide, transfer 13, Expt. 2 (repeat), Table 45)?
The Residual glucose concentration was 0.9 g/L.

What about the Butanol concentration [6] of the same substance?
Its Butanol concentration is 8.33 g/L.

And the Butanol productivity [6]?
Its Butanol productivity is 0.09 g butanol/L-h.

And the Butanol yield [6]?
The Butanol yield was 0.14 g butanol/g/glucose.

What about the Butanol concentration (25 nM peptide, transfer 16, Expt. 2 (repeat), Table 58) of the same substance?
Its Butanol concentration is 12.57 g/L.

What about the Residual glucose concentration [6] of the same substance?
The Residual glucose concentration was 0.0 g/L.

What about the Residual glucose concentration (25 nM peptide, transfer 16, Expt. 2 (repeat), Table 45) of the same substance?
The Residual glucose concentration was 0.1 g/L.

What about the Butanol concentration [7] of the same substance?
The Butanol concentration was 7.52 g/L.

And the Butanol productivity [7]?
Its Butanol productivity is 0.08 g butanol/L-h.

What about the Butanol yield [7] of the same substance?
Its Butanol yield is 0.12 g butanol/g/glucose.

And the Butanol concentration (25 nM peptide, transfer 19, Expt. 2 (repeat), Table 58)?
The Butanol concentration was 4.42 g/L.

And the Residual glucose concentration [7]?
Its Residual glucose concentration is 0.1 g/L.

What about the Residual glucose concentration (25 nM peptide, transfer 19, Expt. 2 (repeat), Table 45) of the same substance?
Its Residual glucose concentration is 0.1 g/L.

What about the Butanol concentration [8] of the same substance?
Its Butanol concentration is 13.47 g/L.

What about the Butanol productivity [8] of the same substance?
The Butanol productivity was 0.14 g butanol/L-h.

And the Butanol yield [8]?
Its Butanol yield is 0.22 g butanol/g/glucose.

What about the Butanol concentration (25 nM peptide, transfer 22, Expt. 2 (repeat), Table 58) of the same substance?
The Butanol concentration was 3.65 g/L.

What about the Residual glucose concentration [8] of the same substance?
The Residual glucose concentration was 9.9 g/L.

And the Residual glucose concentration (25 nM peptide, transfer 22, Expt. 2 (repeat), Table 45)?
The Residual glucose concentration was 0.1 g/L.

And the Butanol concentration [9]?
Its Butanol concentration is 7.27 g/L.

What about the Butanol productivity [9] of the same substance?
The Butanol productivity was 0.08 g butanol/L-h.

What about the Butanol yield [9] of the same substance?
Its Butanol yield is 0.12 g butanol/g/glucose.

What about the Butanol concentration (25 nM peptide, transfer 24, Expt. 2 (repeat), Table 58) of the same substance?
Its Butanol concentration is 2.75 g/L.

What about the Residual glucose concentration [9] of the same substance?
Its Residual glucose concentration is 0.0 g/L.

And the Residual glucose concentration (25 nM peptide, transfer 24, Expt. 2 (repeat), Table 45)?
Its Residual glucose concentration is 0.1 g/L.

And the Butanol concentration [10]?
Its Butanol concentration is 1.90 g/L.

What about the Butanol productivity [10] of the same substance?
Its Butanol productivity is 0.02 g butanol/L-h.

And the Butanol yield [10]?
The Butanol yield was 0.03 g butanol/g/glucose.

And the Butanol concentration (50 nM peptide, transfer 1, Expt. 2 (repeat), Table 58)?
Its Butanol concentration is 1.29 g/L.

And the Residual glucose concentration [10]?
Its Residual glucose concentration is 41.8 g/L.

What about the Residual glucose concentration (50 nM peptide, transfer 1, Expt. 2 (repeat), Table 45) of the same substance?
The Residual glucose concentration was 47.4 g/L.

And the Butanol concentration [11]?
The Butanol concentration was 9.57 g/L.

What about the Butanol productivity [11] of the same substance?
Its Butanol productivity is 0.10 g butanol/L-h.

What about the Butanol yield [11] of the same substance?
Its Butanol yield is 0.16 g butanol/g/glucose.

What about the Butanol concentration (50 nM peptide, transfer 4, Expt. 2 (repeat), Table 58) of the same substance?
The Butanol concentration was 2.24 g/L.

What about the Residual glucose concentration [11] of the same substance?
The Residual glucose concentration was 0.0 g/L.

And the Residual glucose concentration (50 nM peptide, transfer 4, Expt. 2 (repeat), Table 45)?
The Residual glucose concentration was 44.9 g/L.

What about the Butanol concentration [12] of the same substance?
Its Butanol concentration is 7.58 g/L.

What about the Butanol productivity [12] of the same substance?
The Butanol productivity was 0.08 g butanol/L-h.

And the Butanol yield [12]?
Its Butanol yield is 0.13 g butanol/g/glucose.

And the Butanol concentration (50 nM peptide, transfer 7, Expt. 2 (repeat), Table 58)?
The Butanol concentration was 1.98 g/L.

And the Residual glucose concentration [12]?
Its Residual glucose concentration is 0.0 g/L.

And the Residual glucose concentration (50 nM peptide, transfer 7, Expt. 2 (repeat), Table 45)?
Its Residual glucose concentration is 49.8 g/L.

What about the Butanol concentration [13] of the same substance?
The Butanol concentration was 11.09 g/L.

And the Butanol productivity [13]?
The Butanol productivity was 0.12 g butanol/L-h.

What about the Butanol yield [13] of the same substance?
The Butanol yield was 0.18 g butanol/g/glucose.

What about the Butanol concentration (50 nM peptide, transfer 10, Expt. 2 (repeat), Table 58) of the same substance?
Its Butanol concentration is 2.26 g/L.

And the Residual glucose concentration [13]?
Its Residual glucose concentration is 0.0 g/L.

And the Residual glucose concentration (50 nM peptide, transfer 10, Expt. 2 (repeat), Table 45)?
The Residual glucose concentration was 48.0 g/L.

And the Butanol concentration [14]?
The Butanol concentration was 7.90 g/L.

What about the Butanol productivity [14] of the same substance?
Its Butanol productivity is 0.08 g butanol/L-h.

And the Butanol yield [14]?
The Butanol yield was 0.13 g butanol/g/glucose.

And the Butanol concentration (50 nM peptide, transfer 13, Expt. 2 (repeat), Table 58)?
Its Butanol concentration is 4.58 g/L.

What about the Residual glucose concentration [14] of the same substance?
The Residual glucose concentration was 0.1 g/L.

And the Residual glucose concentration (50 nM peptide, transfer 13, Expt. 2 (repeat), Table 45)?
The Residual glucose concentration was 49.1 g/L.

What about the Butanol concentration [15] of the same substance?
The Butanol concentration was 9.34 g/L.

What about the Butanol productivity [15] of the same substance?
The Butanol productivity was 0.10 g butanol/L-h.

What about the Butanol yield [15] of the same substance?
The Butanol yield was 0.15 g butanol/g/glucose.

What about the Butanol concentration (50 nM peptide, transfer 16, Expt. 2 (repeat), Table 58) of the same substance?
Its Butanol concentration is 3.34 g/L.

What about the Residual glucose concentration [15] of the same substance?
The Residual glucose concentration was 0.0 g/L.

What about the Residual glucose concentration (50 nM peptide, transfer 16, Expt. 2 (repeat), Table 45) of the same substance?
The Residual glucose concentration was 47.7 g/L.
